Molecular target: T1, CDK2/Cyclin E (Homo sapiens, UniProt P24941)
T1 construct: The open reading frames of CDK2 and Cyclin E were isolated; made in house; host or cells: Sf21 (Spodoptera frugiperda) insect cells, baculovirus co-infection; the GST-Rb substrate was made in E. coli BL21 (DE3) pLysS
Test: in vitro kinase assay, Scintillation Proximity Assay, incorporation of [γ-33-P]-ATP into GST-Rb
Format: biochemical
Conditions: GST-Rb substrate, 0.2 μM ATP, 60 minutes at room temperature, read-out: CDK2 inhibitory activity IC50
Description: The compounds were tested in an in vitro kinase assay in 96 well format using Scintillation Proximity Assay (SPA—obtained from Amersham) for measuring incorporation of [γ-33-P]-Adenosine Triphosphate into a test substrate (GST-Retinoblastoma protein; GST-Rb). In each well was placed the compound to be tested (diluted in DMSO and water to correct concentrations) and in control wells either roscovitine as an inhibitor control or DMSO as a positive control. […]
The plates were sealed with Topseal-S plate sealers, left for two hours then spun at 2500 rpm, 1124×g., for 5 minutes. The plates were read on a Topcount for 30 seconds per well. […]
E. coli paste was resuspended in 10 ml/g of NETN buffer (50 mM Tris pH 7.5, 120 mM NaCl, 1 mM EDTA, 0.5% v/v NP-40, 1 mM PMSF, 1 ug/ml leupeptin, 1 ug/ml aprotinin and 1 ug/ml pepstatin) and sonicated for 2×45 seconds per 100 ml homogenate. […] The final product was analysed by Sodium Dodeca Sulfate (SDS) PAGE (Polyacrylamide gel) using 8-16% Tris-Glycine gels (Novex, San Diego, USA).
The open reading frames of CDK2 and Cyclin E were isolated by reverse transcriptase-PCR using HeLa cell and activated T cell mRNA as a template and cloned into the insect expression vector pVL1393 (obtained from Invitrogen 1995 catalogue number: V1392-20). […]

IC50: 146 nM
Structure (SMILES): Cn1cncc1-c1ccnc(Nc2ccccc2)n1 [Example 14, 2-Anilino-4-(1-methylimidazol-5-yl)pyrimidine]
